From publication PMC4805779, “The Ascaris suum nicotinic receptor, ACR-16, as a drug target: Four novel negative allosteric modulators from virtual screening” (International Journal for Parasitology: Drugs and Drug …, 2016)
Where a name gives a salt, the structure may show the parent alone. Read-outs that look alike come from different tables or passages of the source.

Tests used:
Asu-ACR-16 [1] = molecular target: T1, Asu-ACR-16 (Ascaris suum, UniProt F1KYJ9); experiment: cell-based; format: cell-based
T1 construct: Full-length Asu-acr-16 cDNA was amplified with the forward primer; expressed in transfected cells; host or cells: Xenopus laevis oocytes injected with Asu-acr-16 cRNA plus Asu-ric-3 cRNA
T1 sequence (F1KYJ9 1-504): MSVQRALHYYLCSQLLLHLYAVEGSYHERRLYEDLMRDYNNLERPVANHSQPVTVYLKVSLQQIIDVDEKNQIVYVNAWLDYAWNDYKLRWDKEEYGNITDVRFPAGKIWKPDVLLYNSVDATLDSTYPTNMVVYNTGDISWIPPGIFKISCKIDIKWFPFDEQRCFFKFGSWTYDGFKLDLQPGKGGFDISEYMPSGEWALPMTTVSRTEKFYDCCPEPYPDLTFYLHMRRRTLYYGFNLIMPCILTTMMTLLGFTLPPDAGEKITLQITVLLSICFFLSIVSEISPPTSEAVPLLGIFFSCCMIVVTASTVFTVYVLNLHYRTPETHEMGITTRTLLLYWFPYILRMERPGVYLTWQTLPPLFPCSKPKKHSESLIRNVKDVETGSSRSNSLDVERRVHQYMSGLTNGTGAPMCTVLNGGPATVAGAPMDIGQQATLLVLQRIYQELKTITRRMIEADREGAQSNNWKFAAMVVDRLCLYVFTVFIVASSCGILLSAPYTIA
Method: (§1) We used two-electrode voltage-clamp electrophysiology to record the inward current generated by the activated Asu-ACR-16 receptors expressed in X. laevis oocytes. 100 μM BAPTA-AM (final concentration) was added into the oocyte incubation solution 4 h prior to recording, to prevent the current produced by the endogenous calcium-activated chloride channels during recording. An Axoclamp 2B amplifier (Molecular Devices, CA, USA) was used for recording and oocytes were held at −60 mV. A PC computer with software Clampex 9.2 (Molecular Devices, CA, USA) was used to acquire the recording data. The microelectrodes used to measure current in oocytes were pulled on a Flaming/Brown horizontal electrode puller (Model P-97, Sutter Instruments), filled with 3M KCl and had resistances of 20–30 MΩ. The microelectrode tips were broken back carefully with Kimwipes (Wilmington, NC, USA) to reduce the resistance to 2–5 MΩ. […] Oocytes were placed into a tiny groove of the narrow oocyte recording chamber.
(§2) 100 μM acetylcholine was applied initially for 10 s as a control to check the viability of the oocytes and Asu-ACR-16 expression for all the recordings. Recording solution was then used to wash out the drug from the oocytes for 2–3 min before next application of drug perfusion.
(§3) The data from electrophysiological recordings were analyzed using Clampfit 9.2 (Molecular Devices, CA, and USA) and GraphPad Prism 5.0 (Graphpad Software Inc., CA, USA). […] Concentration-response relationships or concentration-inhibition (%) relationships were analyzed by fitting data points into the Hill equation, with at least four replicates of each experiment set.

Asu-ACR-16 [2] = molecular target: T1, Asu-ACR-16; experiment: cell-based; format: cell-based; details: for Hill slope (nH): inhibitory concentration-response vs 100 μM ach; for Inhibitionmax (maximum inhibition): of currents elicited by 100 μM ach
Method: The nanoject II microinjector (Drummond Scientific, PA, USA) was used to injected the cRNA mixture into the animal pole of the de-folliculated X. laevis oocyte (Ecocyte Bioscience, Austin, TX, USA).
as §1, §2, §3

C. elegans strain N2 = experiment: C. elegans L4 larvae motility (thrashing) in M9 buffer; format: in vivo, Caenorhabditis elegans; details: for Effect on locomotion of worms vs negative control: 100 μM, 0-20 min
Method: The wild-type C. elegans strain N2 were obtained from the Caenorhabditis Genetics Center (University of Minnesota, MN, USA). […] We counted the number of worms with normal motility in M9 buffer with diluted drugs from the stock solutions (≤1% DMSO) at 0, 5, 10, 15 and 20 min. Five replicates were applied for each treatment. Motility between negative control (1% DMSO, final concentration) and drug treated worms were compared at each time point using student t-test.

[3] = inhibition of currents elicited by 100 μM ach, oocytes held at −60 mV, mean ± S.E.M., read-out: IC50

## CC(C)(C)[C@]1(O)CCN2C[C@H]3c4ccccc4CCc4cccc(c43)[C@@H]2C1 [(+)-butaclamol Cl, (+)-butaclamol hydrochloride]
Asu-ACR-16 [1]; in presence of 1 μM hit
  Hill slope (nH) of ach curve: 9.64 ± 4.14
Asu-ACR-16 [1]; in presence of 3 μM hit
  Hill slope (nH) of ach curve: 12.75 ± 3.63
Asu-ACR-16 [2]
  IC50: 9.85 ± 2.37 µM
Asu-ACR-16 [2]; mean ± S.E.M.
  Hill slope (nH): 1.34 ± 0.29
  Inhibitionmax (maximum inhibition): 79.53 ± 12.41%

## Cl.N#Cc1ccc2c(c1)CCN(CC[C@H]1CC[C@H](NC(=O)c3ccnc4ccccc34)CC1)C2.O [SB-277011-A, SB-277011-A hydrochloride hydrate]
C. elegans strain N2; L4 larvae, 30 μM
  Time to recovery of normal motility: ≤ 20 min
C. elegans strain N2; L4 larvae, 30 μM, 5 min, p < 0.01
  Drop in number of normal worms with thrashing-like movement: 60%
C. elegans strain N2; L4 larvae, 30 μM, 10 min, p < 0.05
  Number of worms with motility that appeared normal: 50%
C. elegans strain N2; L4 larvae, 30 μM, 15 min, p > 0.05
  Number of worms with motility that appeared normal: 85%
C. elegans strain N2; L4 larvae, 30 μM, after 20 min
  Number of worms with motility that appeared normal: returned to near negative control values
C. elegans strain N2; adult worms
  Effect on motility of adult C. elegans compared with larvae: less effective on adult C. elegans

## CC(=O)OCC[N+](C)(C)C [ach, acetylcholine chloride]
Asu-ACR-16 [1]; ach alone (control, absence of hits)
  Hill slope (nH): 3.05 ± 0.07
Asu-ACR-16 [1]; read-out: Imax (maximum response)
  Emax: 97.5 ± 1.19%

## O=C(OCC1c2ccccc2-c2ccccc21)N1CCC(C(=O)O)(c2cccc3ccccc23)CC1 [fmoc-1, fmoc-4-(naphthalen-1-yl)-piperidine-4-carboxylic acid]
Asu-ACR-16 [1]; in presence of 3 μM hit
  Hill slope (nH) of ach curve: 1.76 ± 0.21
Asu-ACR-16 [2]; [3]
  IC50: 10 ± 1.38 µM
Asu-ACR-16 [2]; mean ± S.E.M.
  Hill slope (nH): 1.97 ± 0.37
  Inhibitionmax (maximum inhibition): 82.49 ± 4.74%
C. elegans strain N2; L4 larvae
  Effect on locomotion of worms vs negative control: No visual effects

## O=C(OCC1c2ccccc2-c2ccccc21)N1CCC(C(=O)O)(c2ccc3ccccc3c2)CC1 [fmoc-2, fmoc-4-(naphthalen-2-yl)-piperidine-4-carboxylic acid]
Asu-ACR-16 [1]; in presence of 3 μM hit
  Hill slope (nH) of ach curve: 2.54 ± 0.18
Asu-ACR-16 [2]; [3]
  IC50: 16.7 ± 1.95 µM
Asu-ACR-16 [2]; mean ± S.E.M.
  Hill slope (nH): 1.22 ± 0.17
  Inhibitionmax (maximum inhibition): 80.34 ± 10.32%
C. elegans strain N2; L4 larvae
  Effect on locomotion of worms vs negative control: No visual effects

## c1ccc([C@H]2CN3CCSC3=N2)cc1 [levamisole, Levamisole hydrochloride]
C. elegans strain N2; L4 larvae, 30 μM
  Time without recovery of normal motility: > 24 h
